Assay results reported in PubChem BioAssay AID330 (DTP/NCI, 2004).
Values joined by “and” are separate entries in the source; they are usually repeats but may differ in a detail not shown here. Equal values may be shown once. Toxic doses and inconclusive results are not listed. How the source made its calls: active means survival T/C of 150% or more; inactive means T/C below 125% in these data.

System: P388 leukemia ip, CD2F1 mice, survival T/C
Experiment: NCI In Vivo Anticancer Drug Screen. Data for tumor model P388 Leukemia (intraperitoneal) in CD2F1 (CDF1) mice
Conditions: endpoint: median survival time, higher = longer survival
Outline: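 Mice carrying the transplanted tumor received test compound or vehicle. Survival was recorded in each group, and the value is the treated-group measurement divided by that of the vehicle-treated control group.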

[1] = dose: 25.0 mg/kg/injection, schedule: Q01DX001 (ip), vehicle: Klucel (hydroxypropylcellulose) (HPC)
[2] = dose: 50.0 mg/kg/injection, schedule: Q01DX001 (ip), vehicle: Klucel (hydroxypropylcellulose) (HPC)
[3] = dose: 50.0 mg/kg/injection, schedule: Q01DX005 (ip), vehicle: Klucel (hydroxypropylcellulose) (HPC)
[4] = dose: 100.0 mg/kg/injection, schedule: Q01DX005 (ip), vehicle: Klucel (hydroxypropylcellulose) (HPC)
[5] = dose: 200.0 mg/kg/injection, schedule: Q01DX005 (ip), vehicle: Klucel (hydroxypropylcellulose) (HPC)
[6] = dose: 50.0 mg/kg/injection, schedule: Q01DX009 (ip), vehicle: Klucel (hydroxypropylcellulose) (HPC)
[7] = dose: 100.0 mg/kg/injection, schedule: Q01DX009 (ip), vehicle: Klucel (hydroxypropylcellulose) (HPC)
[8] = dose: 200.0 mg/kg/injection, schedule: Q01DX009 (ip), vehicle: Klucel (hydroxypropylcellulose) (HPC)
[9] = dose: 60.0 mg/kg/injection, schedule: Q01DX005 (ip), vehicle: saline with Tween-80
[10] = dose: 120.0 mg/kg/injection, schedule: Q01DX005 (ip), vehicle: saline with Tween-80
[11] = dose: 240.0 mg/kg/injection, schedule: Q01DX005 (ip), vehicle: saline with Tween-80
[12] = dose: 50.0 mg/kg/injection, schedule: Q01DX005 (ip), vehicle: saline with Tween-80
[13] = dose: 100.0 mg/kg/injection, schedule: Q01DX005 (ip), vehicle: saline with Tween-80
[14] = dose: 200.0 mg/kg/injection, schedule: Q01DX005 (ip), vehicle: saline with Tween-80
[15] = dose: 60.0 mg/kg/injection, schedule: Q01DX005 (ip), vehicle: Klucel (hydroxypropylcellulose) (HPC)
[16] = dose: 120.0 mg/kg/injection, schedule: Q01DX005 (ip), vehicle: Klucel (hydroxypropylcellulose) (HPC)
[17] = dose: 240.0 mg/kg/injection, schedule: Q01DX005 (ip), vehicle: Klucel (hydroxypropylcellulose) (HPC)
[18] = dose: 50.0 mg/kg/injection, schedule: Q01DX009 (ip), vehicle: saline with Tween-80
[19] = dose: 100.0 mg/kg/injection, schedule: Q01DX009 (ip), vehicle: saline with Tween-80
[20] = dose: 200.0 mg/kg/injection, schedule: Q01DX009 (ip), vehicle: saline with Tween-80

Measured: T/C

CC(=O)c1ccc(-c2ccccc2)cc1
inactive: dose: 100.0 mg/kg/injection, schedule: Q04DX003 (ip), vehicle: saline with Tween-80 91 % of control | dose: 200.0 mg/kg/injection, schedule: Q04DX003 (ip), vehicle: saline with Tween-80 91 % of control | dose: 400.0 mg/kg/injection, schedule: Q04DX003 (ip), vehicle: saline with Tween-80 95 % of control

CC1=CC(C)(C2(C)C=C(C)NC(=O)N2)NC(=O)N1 (stereo not given)
inactive: [1] 99 % of control | [2] 98 % of control | dose: 100.0 mg/kg/injection, schedule: Q01DX001 (ip), vehicle: Klucel (hydroxypropylcellulose) (HPC) 99 % of control

O=S(=O)(O)C(O)c1cccc(Cl)c1 (stereo not given)
inactive: dose: 100.0 mg/kg/injection, schedule: Q04DX003 (ip), vehicle: saline 100 % of control | dose: 200.0 mg/kg/injection, schedule: Q04DX003 (ip), vehicle: saline 110 % of control | dose: 400.0 mg/kg/injection, schedule: Q04DX003 (ip), vehicle: saline 103 % of control

C(CCC[Si]12OCCN(CCO1)CCO2)CC[Si]12OCCN(CCO1)CCO2
inactive: [3] 102 % of control | [4] 93 % of control | [5] 91 % of control

COc1cc2c(c(OC)c1OC)CCC/C2=N\NC(N)=S
inactive: dose: 100.0 mg/kg/injection, schedule: Q04DX003 (ip), vehicle: Klucel (hydroxypropylcellulose) (HPC) 92 % of control | dose: 200.0 mg/kg/injection, schedule: Q04DX003 (ip), vehicle: Klucel (hydroxypropylcellulose) (HPC) 92 % of control | dose: 400.0 mg/kg/injection, schedule: Q04DX003 (ip), vehicle: Klucel (hydroxypropylcellulose) (HPC) 86 % of control

CN(C/C=C/CN(C)N=O)N=O
inactive: dose: 12.5 mg/kg/injection, schedule: Q01DX009 (ip), vehicle: Klucel (hydroxypropylcellulose) (HPC) 116 % of control | dose: 25.0 mg/kg/injection, schedule: Q01DX009 (ip), vehicle: Klucel (hydroxypropylcellulose) (HPC) 118 % of control | [6] 96 % of control

Nc1ncnc2c1ncn2C1OC(CO)CC1O (stereo not given)
inactive: dose: 9.37 mg/kg/injection, schedule: Q01DX009 (ip), vehicle: Klucel (hydroxypropylcellulose) (HPC) 109 % of control | dose: 18.75 mg/kg/injection, schedule: Q01DX009 (ip), vehicle: Klucel (hydroxypropylcellulose) (HPC) 104 % of control | dose: 37.5 mg/kg/injection, schedule: Q01DX009 (ip), vehicle: Klucel (hydroxypropylcellulose) (HPC) 110 % of control | dose: 75.0 mg/kg/injection, schedule: Q01DX009 (ip), vehicle: Klucel (hydroxypropylcellulose) (HPC) 112 % of control

O=C(NCO)NS(=O)(=O)c1ccc(N2C(=O)c3ccccc3C2=O)cc1
inactive: [6] 103 % of control | [7] 107 % of control | [8] 112 % of control

CC1(C)CC(OP(=[Se])(OC2CC(C)(C)N(O)C(C)(C)C2)OC2CC(C)(C)N(O)C(C)(C)C2)CC(C)(C)N1O
inactive: dose: 12.5 mg/kg/injection, schedule: Q01DX001 (ip), vehicle: Klucel (hydroxypropylcellulose) (HPC) 97 % of control | [1] 102 % of control | [2] 104 % of control

COc1cc(C2C3=C(CCC3)Oc3cc4c(cc32)OCO4)cc(OC)c1OC (stereo not given)
inactive: [9] 91 % of control | [10] 86 % of control | [11] 86 % of control

Cc1cc(C)n(-c2ccccc2-[n+]2noc([O-])c2C)n1
inactive: [12] 97 % of control | [13] 95 % of control | [14] 95 % of control

Cn1c(=O)c2c(ncn2N)n(C)c1=O
inactive: [15] 111 % of control | [16] 102 % of control | [17] 107 % of control

O=C(NN(c1ccccc1)c1ccccc1)c1ccccc1[N+](=O)[O-]
inactive: [18] 93 % of control | [19] 104 % of control | [20] 93 % of control

Oc1ccc2c3c1OC1C(=NN=C4CCC5(O)C6Cc7ccc(O)c8c7C5(CCN6CC5CC5)C4O8)CCC4(O)C(C2)N(CC2CC2)CCC314 (stereo not given)
inactive: [12] 91 % of control | [13] 98 % of control | [14] 99 % of control

O=[N+]([O-])c1ccc(O)c(/C=N\NS(=O)(=O)c2ccc(Cl)cc2)c1
inactive: [12] 108 % of control | [13] 100 % of control

N#CC(C(=O)CCC(=O)C(C#N)c1nc2ccccc2s1)c1nc2ccccc2s1 (stereo not given)
inactive: dose: 100.0 mg/kg/injection, schedule: Q01DX001 (ip), vehicle: saline with Tween-80 89 % of control | dose: 200.0 mg/kg/injection, schedule: Q01DX001 (ip), vehicle: saline with Tween-80 88 % of control | dose: 400.0 mg/kg/injection, schedule: Q01DX001 (ip), vehicle: saline with Tween-80 91 % of control

CCC[P+](CCC)(CCC)CCCCCCCCCC[P+](CCC)(CCC)CCC
inactive: dose: 0.19 mg/kg/injection, schedule: Q01DX009 (ip), vehicle: saline 106 % of control | dose: 0.39 mg/kg/injection, schedule: Q01DX009 (ip), vehicle: saline 100 % of control | dose: 0.79 mg/kg/injection, schedule: Q01DX009 (ip), vehicle: saline 88 % of control

COc1cc2c(-c3c4c5c(cc(OC)c(OC)c5c5cc(OC)c(OC)cc35)CCN4C)c3c4c(cc(OC)c(OC)c4c2cc1OC)CCN3C
inactive: dose: 100.0 mg/kg/injection, schedule: Q04DX002 (ip), vehicle: saline 101 % of control | dose: 200.0 mg/kg/injection, schedule: Q04DX002 (ip), vehicle: saline 102 % of control | dose: 400.0 mg/kg/injection, schedule: Q04DX002 (ip), vehicle: saline 101 % of control

Cc1cccc(NC(=O)Oc2ccc(Cl)c3cccnc23)c1
inactive: [6] 112 % of control | [7] 102 % of control | [8] 114 % of control

CNC(=O)OC1=NCCN1
inactive: [3] 94 % of control | [4] 100 % of control | [5] 99 % of control

CN(C)C1CS(=O)(=O)C1c1ccccc1 (stereo not given)
inactive: dose: 12.5 mg/kg/injection, schedule: Q01DX009 (ip), vehicle: saline with Tween-80 100 % of control and 110 % of control | dose: 25.0 mg/kg/injection, schedule: Q01DX009 (ip), vehicle: saline with Tween-80 110 % of control and 95 % of control | [18] 112 % of control and 95 % of control | [19] 102 % of control and 103 % of control and 97 % of control | [20] 102 % of control

CN1C=CC(C(O)(c2ccccc2)c2ccccc2)CC1 (stereo not given)
inactive: [12] 99 % of control | [13] 97 % of control | [14] 100 % of control

CC(=O)CC(C)=O.CCN(CC)CC[C-]=O.[Pd+2]
inactive: dose: 0.78 mg/kg/injection, schedule: Q04DX003 (ip), vehicle: propolene glycol 97 % of control | dose: 1.56 mg/kg/injection, schedule: Q04DX003 (ip), vehicle: propolene glycol 95 % of control | dose: 3.13 mg/kg/injection, schedule: Q04DX003 (ip), vehicle: propolene glycol 97 % of control | dose: 6.25 mg/kg/injection, schedule: Q04DX003 (ip), vehicle: propolene glycol 96 % of control | dose: 12.5 mg/kg/injection, schedule: Q04DX003 (ip), vehicle: other 123 % of control | dose: 12.5 mg/kg/injection, schedule: Q04DX003 (ip), vehicle: propolene glycol 91 % of control | dose: 25.0 mg/kg/injection, schedule: Q04DX003 (ip), vehicle: other 120 % of control

CSC(C=C1C=CN(CC(=O)c2ccccc2)C=C1)=C(C#N)C#N
inactive: dose: 25.0 mg/kg/injection, schedule: Q04DX002 (ip), vehicle: saline with Tween-80 97 % of control | dose: 50.0 mg/kg/injection, schedule: Q04DX002 (ip), vehicle: saline with Tween-80 102 % of control | dose: 100.0 mg/kg/injection, schedule: Q04DX002 (ip), vehicle: saline with Tween-80 99 % of control

O=[N+]([O-])c1ccc2c(c1)[S@@](=O)c1nc([N+](=O)[O-])cnc1N2
inactive: [3] 103 % of control | [4] 101 % of control

CC(NCc1ccccc1)[Si](C)(C)C (stereo not given)
inactive: [12] 102 % of control | [13] 105 % of control

O=C(O)/C=C/C(=O)NNc1nc2ccccc2s1
inactive: [15] 97 % of control | [16] 96 % of control | [17] 89 % of control

O=C(Nc1cccc(Cl)c1)N1CC1
inactive: [18] 105 % of control | [19] 113 % of control

O=C1C=CSc2ccccc2N1
inactive: [9] 110 % of control | [10] 103 % of control | [11] 101 % of control
